Experimental findings from US20210290648A1, “Potentiation of B-Lactam Antibiotics and B-Lactam/B-Lactamase Inhibitor Combinations Against Multidrug and Extensively Drug-Resistant Pseudomonas Aeruginosa Using Non-Ribosomal Tobramycin-Cyclam Conjugates” (University of Manitoba, priority 2018, published 2021) are described below.

For the test, the system named is WT P. aeruginosa PAO1. Kind of test: Checkerboard combination study / MIC. Format: cell-based, Pseudomonas aeruginosa. To be noted: for MIC: Pseudomonas aeruginosa; for FICI in the presence of ≤10 μM of 1: antibiotic + compound 1; for FICI in the presence of ≤10 μM of 1 / MIC of Antibiotics in the presence of ≤10 μM of 1 / FICI in the presence of ≤10 μM of 2 / MIC of Antibiotics in the presence of ≤10 μM of 2 / FICI in the presence of ≤10 μM of 3 / MIC of Antibiotics in the presence of ≤10 μM of 3 / FICI with compounds 1-3: WT PAO1; for MIC of Antibiotics in the presence of ≤10 μM of 1: antibiotic + compound 1 ≤10 μM; for FICI in the presence of ≤10 μM of 2: antibiotic + compound 2; for MIC of Antibiotics in the presence of ≤10 μM of 2: antibiotic + compound 2 ≤10 μM; for FICI in the presence of ≤10 μM of 3: antibiotic + compound 3; for MIC of Antibiotics in the presence of ≤10 μM of 3: antibiotic + compound 3 ≤10 μM; for FICI with compounds 1-3: antibiotic + compounds 1-3 at ≤10 μM (≤16 μg/mL).

Setting [1] is: PAO1, 18 h, antibiotic alone, WT PAO1 (Table 2), read-out: MIC alone.

The structures appear in SMILES notation. Read-outs that look alike come from different tables or passages of the source.

Usually MIC stands for the least concentration at which growth counts as inhibited. Turning to `CCC[C@@H]1C[C@@H](C(=O)N[C@@H]([C@H]2O[C@H](SC)[C@H](O)[C@@H](O)[C@H]2O)[C@H](C)Cl)N(C)C1` [Clindamycin], the “FICI in the presence of ≤10 μM of 1” value was 0.50, the “MIC of Antibiotics in the presence of ≤10 μM of 1” value (from here on “MIC of Antibiotics … of 1”) came out at 512 µg/mL, the “FICI in the presence of ≤10 μM of 2” value came to 0.51 and the “MIC of Antibiotics in the presence of ≤10 μM of 2” value (shortened to “MIC of Antibiotics … of 2”) amounted to 512 µg/mL. In addition, the “FICI in the presence of ≤10 μM of 3” value is 0.07 and the “MIC of Antibiotics in the presence of ≤10 μM of 3” value (“MIC of Antibiotics … of 3” below) was 64 µg/mL. The MIC under setting [1] came to 1020 µg/mL.
With `CC(=O)NC[C@H]1CN(c2ccc(N3CCOCC3)c(F)c2)C(=O)O1` [Linezolid], the “FICI in the presence of ≤10 μM of 1” value came to 1.00, the “MIC of Antibiotics … of 1” value is 1024 µg/mL, the “FICI in the presence of ≤10 μM of 2” value worked out at 0.26 and the “MIC of Antibiotics … of 2” value was found to be 256 µg/mL. The “FICI in the presence of ≤10 μM of 3” value is 0.25 and the “MIC of Antibiotics … of 3” value is 256 µg/mL. Moreover, under setting [1], the minimal inhibitory concentration (MIC) turned out to be 1020 µg/mL.
In the case of `O=C1CN(/N=C/c2ccc([N+](=O)[O-])o2)C(=O)N1` [Nitrofurantoin], the “FICI in the presence of ≤10 μM of 1” value stood at 1.00, the “MIC of Antibiotics … of 1” value stood at 1024 µg/mL, the “FICI in the presence of ≤10 μM of 2” value worked out at 1.00 and the “MIC of Antibiotics … of 2” value is 1024 µg/mL. The “FICI in the presence of ≤10 μM of 3” value stood at 1.02, the “MIC of Antibiotics … of 3” value worked out at 1024 µg/mL and the “FICI with compounds 1-3” value is 1. For the same compound, the MIC under setting [1] was 1020 µg/mL.
Consider `CC[C@H]1OC(=O)[C@H](C)[C@@H](O[C@H]2C[C@@](C)(OC)[C@@H](O)[C@H](C)O2)[C@H](C)[C@@H](O[C@@H]2O[C@H](C)C[C@H](N(C)C)[C@H]2O)[C@](C)(O)C[C@@H](C)C(=O)[C@H](C)[C@@H](O)[C@]1(C)O` [Erythromycin], for which the “FICI in the presence of ≤10 μM of 1” value was found to be 0.50, the “FICI in the presence of ≤10 μM of 2” value stood at 0.50 and the “FICI in the presence of ≤10 μM of 3” value turned out to be 0.25. Under setting [1], the MIC was determined as 512 µg/mL.
`C[C@@H]1O[C@@H]1P(=O)(O)O` [Fosfomycin]: the “FICI in the presence of ≤10 μM of 1” value was 0.51, the “MIC of Antibiotics … of 1” value turned out to be 8 µg/mL, the “FICI in the presence of ≤10 μM of 2” value was 0.50 and the “MIC of Antibiotics … of 2” value amounted to 8 µg/mL. Besides, the “FICI in the presence of ≤10 μM of 3” value was 1.02 and the “MIC of Antibiotics … of 3” value worked out at 16 µg/mL. For the same compound, under setting [1], the MIC amounted to 16 µg/mL.
For the compound `CN(C)c1ccc(O)c2c1C[C@H]1C[C@H]3[C@H](N(C)C)C(O)=C(C(N)=O)C(=O)[C@@]3(O)C(O)=C1C2=O` [Minocycline], the “FICI in the presence of ≤10 μM of 1” value came to 0.25, the “MIC of Antibiotics … of 1” value turned out to be 2 µg/mL, the “FICI in the presence of ≤10 μM of 2” value was determined as 0.25 and the “MIC of Antibiotics … of 2” value came out at 2 µg/mL. Also, the “FICI in the presence of ≤10 μM of 3” value was 0.17 and the “MIC of Antibiotics … of 3” value stood at 1 µg/mL. Moreover, the MIC under setting [1] worked out at 8 µg/mL.
Take `CO[C@@H]1[C@@H](OC(N)=O)[C@@H](O)[C@H](Oc2ccc3c(O)c(NC(=O)c4ccc(O)c(CC=C(C)C)c4)c(=O)oc3c2C)OC1(C)C` [Novobiocin]: the “FICI in the presence of ≤10 μM of 1” value amounted to 0.13, the “MIC of Antibiotics … of 1” value was found to be 64 µg/mL, the “FICI in the presence of ≤10 μM of 2” value amounted to 0.13 and the “MIC of Antibiotics … of 2” value was 64 µg/mL. The “FICI in the presence of ≤10 μM of 3” value was determined as 0.08, the “MIC of Antibiotics … of 3” value was determined as 32 µg/mL and the “FICI with compounds 1-3” value was 0.08-0.13. The MIC under setting [1] came to 512 µg/mL.
In the case of `COc1cc(Cc2cnc(N)nc2N)cc(OC)c1OC` [Trimethoprim], the “FICI in the presence of ≤10 μM of 1” value is listed as 0.50, the “MIC of Antibiotics … of 1” value amounted to 32 µg/mL, the “FICI in the presence of ≤10 μM of 2” value is given as 0.50 and the “MIC of Antibiotics … of 2” value is 32 µg/mL. The “FICI in the presence of ≤10 μM of 3” value came out at 0.50 and the “MIC of Antibiotics … of 3” value is 32 µg/mL. Further, under setting [1], the MIC turned out to be 64 µg/mL.
Take `COc1c(N2C[C@@H]3CCCN[C@@H]3C2)c(F)cc2c(=O)c(C(=O)O)cn(C3CC3)c12` [Moxifloxacin]: the “FICI in the presence of ≤10 μM of 1” value came to 1.00, the “MIC of Antibiotics … of 1” value amounted to 1 µg/mL, the “FICI in the presence of ≤10 μM of 2” value is given as 0.51 and the “MIC of Antibiotics … of 2” value amounted to 0.5 µg/mL. The “FICI in the presence of ≤10 μM of 3” value was determined as 1.01 and the “MIC of Antibiotics … of 3” value is 1 µg/mL. Besides, the MIC under setting [1] was found to be 1 µg/mL.
As for `CN(C)c1cc(NC(=O)CNC(C)(C)C)c(O)c2c1C[C@H]1C[C@H]3[C@H](N(C)C)C(O)=C(C(N)=O)C(=O)[C@@]3(O)C(O)=C1C2=O` [Tigecycline], the “FICI in the presence of ≤10 μM of 1” value is 0.25, the “MIC of Antibiotics … of 1” value came out at 2 µg/mL, the “FICI in the presence of ≤10 μM of 2” value came out at 0.50 and the “MIC of Antibiotics … of 2” value is 2 µg/mL. Also, the “FICI in the presence of ≤10 μM of 3” value stood at 0.52 and the “MIC of Antibiotics … of 3” value was 2 µg/mL. For the same compound, the minimal inhibitory concentration (MIC) (PAO1, read-out: MIC alone) came out at 4 µg/mL.
As to `C=C[C@]1(C)C[C@@H](OC(=O)CO)[C@]2(C)[C@H](C)CC[C@]3(CCC(=O)[C@H]32)[C@@H](C)[C@@H]1O` [Pleuromutilin], the “FICI in the presence of ≤10 μM of 1” value came out at 1.00, the “MIC of Antibiotics … of 1” value turned out to be 512 µg/mL, the “FICI in the presence of ≤10 μM of 2” value is given as 1.00 and the “MIC of Antibiotics … of 2” value stood at 512 µg/mL. Moreover, the “FICI in the presence of ≤10 μM of 3” value turned out to be 0.25 and the “MIC of Antibiotics … of 3” value is 128 µg/mL. Moreover, the MIC under setting [1] is 512 µg/mL.
With `O=C(N[C@H](CO)[C@H](O)c1ccc([N+](=O)[O-])cc1)C(Cl)Cl` [Chloramphenicol], the “FICI in the presence of ≤10 μM of 1” value is recorded as 0.25, the “MIC of Antibiotics … of 1” value stood at 8 µg/mL, the “FICI in the presence of ≤10 μM of 2” value turned out to be 0.13 and the “MIC of Antibiotics … of 2” value was 4 µg/mL. The “FICI in the presence of ≤10 μM of 3” value stood at 0.25 and the “MIC of Antibiotics … of 3” value is 8 µg/mL. The MIC under setting [1] stood at 32 µg/mL.
For the compound `C[C@H]1c2cccc(O)c2C(=O)C2=C(O)[C@]3(O)C(=O)C(C(N)=O)=C(O)[C@@H](N(C)C)[C@@H]3[C@@H](O)[C@@H]21` [Doxycycline], the “FICI in the presence of ≤10 μM of 1” value worked out at 0.50, the “MIC of Antibiotics … of 1” value was found to be 4 µg/mL, the “FICI in the presence of ≤10 μM of 2” value is listed as 0.13 and the “MIC of Antibiotics … of 2” value worked out at 1 µg/mL. For the same compound, the “FICI in the presence of ≤10 μM of 3” value is recorded as 0.08 and the “MIC of Antibiotics … of 3” value is 0.5 µg/mL. Also, the MIC under setting [1] turned out to be 8 µg/mL.
For `CO[C@H]1/C=C/O[C@@]2(C)Oc3c(C)c(O)c4c(O)c(c(/C=N/N5CCN(C)CC5)c(O)c4c3C2=O)NC(=O)/C(C)=C\C=C\[C@H](C)[C@H](O)[C@@H](C)[C@@H](O)[C@@H](C)[C@H](OC(C)=O)[C@@H]1C` [Rifampicin], the “FICI in the presence of ≤10 μM of 1” value was 0.13, the “MIC of Antibiotics … of 1” value turned out to be 2 µg/mL, the “FICI in the presence of ≤10 μM of 2” value came to 0.13 and the “MIC of Antibiotics … of 2” value was 2 µg/mL. Moreover, the “FICI in the presence of ≤10 μM of 3” value is reported as 0.25, the “MIC of Antibiotics … of 3” value worked out at 4 µg/mL and the “FICI with compounds 1-3” value is 0.13-0.25. The MIC under setting [1] came to 16 µg/mL.
As to `CN[C@H](CC(C)C)C(=O)N[C@H]1C(=O)N[C@@H](CC(N)=O)C(=O)N[C@H]2C(=O)N[C@H]3C(=O)N[C@H](C(=O)N[C@H](C(=O)O)c4cc(O)cc(O)c4-c4cc3ccc4O)[C@H](O)c3ccc(c(Cl)c3)Oc3cc2cc(c3O[C@@H]2O[C@H](CO)[C@@H](O)[C@H](O)[C@H]2O[C@H]2C[C@](C)(N)[C@H](O)[C@H](C)O2)Oc2ccc(cc2Cl)[C@H]1O` [Vancomycin], the “FICI in the presence of ≤10 μM of 1” value is 0.50, the “MIC of Antibiotics … of 1” value amounted to 128 µg/mL, the “FICI in the presence of ≤10 μM of 2” value is given as 0.26 and the “MIC of Antibiotics … of 2” value amounted to 64 µg/mL. Besides, the “FICI in the presence of ≤10 μM of 3” value was determined as 0.50 and the “MIC of Antibiotics … of 3” value was found to be 128 µg/mL. Moreover, the minimal inhibitory concentration (MIC) (PAO1, 18 h, read-out: MIC alone) was determined as 256 µg/mL.
